# Experimental data from the supplement of paper PMC10307832.
# Compound: Cn1cnc2c(F)c(Nc3ccc(Br)cc3Cl)c(C(=O)NOCCO)cc21 [Selumetinib] + CS(=O)(=O)CCNCc1ccc(-c2ccc3ncnc(Nc4ccc(OCc5cccc(F)c5)c(Cl)c4)c3c2)o1 [Lapatinib] (partner 2 µM)
# Test: relative viability (nuclei count vs DMSO), 5 days (fraction); higher = more cells survive
# Details: first compound 0.02 µM
# Procedure, shortened: (§1)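 Cells from lung cancer lines were seeded into 1536-well plates and, one day later, dosed by pin tool. Treatments were either a single drug or a fixed dose of an anchor drug with five library-drug doses (not always all listed) in √10 steps. After 5 days, nuclei were stained in a one-step fixation (final 0.05% Triton X-100, 1% formaldehyde, 1 ug/ml Hoechst) and counted on 4× images, and relative viability is the treated-to-vehicle nuclei ratio, as the median of duplicate plates.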
row,Cell Line,relative viability
1,PC-14,0.285
2,NCI-H1666,0.506
3,EBC-1,0.203
4,NCI-H1755,0.971
5,NCI-H2023,0.893
6,EPLC-272H,0.801
7,LCLC-97TM1,1.05
8,PC-3 [JPC-3],0.45
9,LOU-NH91,0.759
10,NCI-H647,0.964
11,NCI-H23,1.24

# Same assay, conditions: first compound 0.06325 µM
row,Cell Line,relative viability
1,PC-14,0.252
2,NCI-H1666,0.286
3,EBC-1,0.201
4,NCI-H1755,0.953
5,NCI-H2023,0.692
6,EPLC-272H,0.722
7,LCLC-97TM1,0.985
8,PC-3 [JPC-3],0.4
9,LOU-NH91,0.707
10,NCI-H647,0.872
11,NCI-H23,1.02

# Same assay, conditions: first compound 0.2 µM
row,Cell Line,relative viability
1,PC-14,0.234
2,NCI-H1666,0.351
3,EBC-1,0.239
4,NCI-H1755,0.91
5,NCI-H2023,0.747
6,EPLC-272H,0.558
7,LCLC-97TM1,0.86
8,PC-3 [JPC-3],0.415
9,LOU-NH91,0.758
10,NCI-H647,0.876
11,NCI-H23,0.825

# Same assay, conditions: first compound 0.6325 µM
row,Cell Line,relative viability
1,PC-14,0.207
2,NCI-H1666,0.477
3,EBC-1,0.199
4,NCI-H1755,0.998
5,NCI-H2023,0.766
6,EPLC-272H,0.643
7,LCLC-97TM1,0.481
8,PC-3 [JPC-3],0.45
9,LOU-NH91,0.766
10,NCI-H647,0.957
11,NCI-H23,0.957

# Compound: CC1(C)CCC(CN2CCN(c3ccc(C(=O)NS(=O)(=O)c4ccc(NCC5CCOCC5)c([N+](=O)[O-])c4)c(Oc4cnc5[nH]ccc5c4)c3)CC2)=C(c2ccc(Cl)cc2)C1 [Venetoclax] + CS(=O)(=O)N1CCN(Cc2cc3nc(-c4cccc5[nH]ncc45)nc(N4CCOCC4)c3s2)CC1 [Pictilisib] (partner 1 µM)
# Test: as above
# Details: first compound 0.01 µM
# Procedure, shortened: as §1
row,Cell Line,relative viability
1,PC-14,0.588
2,NCI-H1666,0.457
3,EBC-1,0.436
4,NCI-H1755,0.346
5,NCI-H2023,0.259
6,PC-3 [JPC-3],0.643
7,LOU-NH91,0.515
8,NCI-H647,0.443
9,NCI-H23,0.595
10,ChaGo-K-1,0.91
11,NCI-H441,0.611
12,LCLC-103H,0.686

# Same assay, conditions: first compound 0.03162 µM
row,Cell Line,relative viability
1,PC-14,0.649
2,NCI-H1666,0.448
3,EBC-1,0.59
4,NCI-H1755,0.482
5,NCI-H2023,0.234
6,EPLC-272H,0.3
7,LCLC-97TM1,0.264
8,PC-3 [JPC-3],0.872
9,LOU-NH91,0.565
10,NCI-H647,0.386
11,NCI-H23,0.501
12,ChaGo-K-1,0.998
13,NCI-H441,0.479
14,LCLC-103H,0.566

# Same assay, conditions: first compound 0.1 µM
row,Cell Line,relative viability
1,PC-14,0.693
2,NCI-H1666,0.42
3,EBC-1,0.348
4,NCI-H1755,0.398
5,NCI-H2023,0.222
6,EPLC-272H,0.327
7,LCLC-97TM1,0.173
8,PC-3 [JPC-3],0.787
9,LOU-NH91,0.54
10,NCI-H647,0.435
11,NCI-H23,0.381
12,NCI-H441,0.431
13,LCLC-103H,0.635

# Same assay, conditions: first compound 0.3162 µM
row,Cell Line,relative viability
1,PC-14,0.81
2,NCI-H1666,0.439
3,EBC-1,0.339
4,NCI-H1755,0.449
5,NCI-H2023,0.23
6,EPLC-272H,0.403
7,LCLC-97TM1,0.273
8,PC-3 [JPC-3],0.782
9,LOU-NH91,0.523
10,NCI-H647,0.439
11,NCI-H23,0.479
12,ChaGo-K-1,0.825
13,NCI-H441,0.46
14,LCLC-103H,0.676

# Same assay, conditions: first compound 1 µM
row,Cell Line,relative viability
1,PC-14,0.604
2,NCI-H1666,0.534
3,EBC-1,0.406
4,NCI-H1755,0.465
5,NCI-H2023,0.227
6,EPLC-272H,0.33
7,LCLC-97TM1,0.21
8,PC-3 [JPC-3],0.67
9,LOU-NH91,0.53
10,NCI-H647,0.45
11,NCI-H23,0.508
12,ChaGo-K-1,0.727
13,NCI-H441,0.444
14,LCLC-103H,0.619

# Compound: CC1(C)CCC(CN2CCN(c3ccc(C(=O)NS(=O)(=O)c4ccc(NCC5CCOCC5)c([N+](=O)[O-])c4)c(Oc4cnc5[nH]ccc5c4)c3)CC2)=C(c2ccc(Cl)cc2)C1 [Venetoclax]
# Test: relative viability (nuclei count vs DMSO), 5 days (fraction); higher = more cells survive
# Details: 0.01 µM
# Procedure, shortened: (§2)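 Cells of lung cancer lines were placed in 1536-well plates and kept overnight at 37 °C. Pinning then delivered five library-drug doses (not always all listed), spaced by √10, onto plates anchored with vehicle, and the cells were left 5 days without changing medium. One step fixed, permeabilised and stained them with Hoechst, and MetaXpress counted nuclei in 4× images. Viability, as a median over plates, is treated-well nuclei divided by vehicle-well nuclei, with acceptance only at control CV below 25% and at least one doubling.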
row,Cell Line,relative viability
1,NCI-H522,0.955
2,NCI-H1623,0.951
3,PC-14,1
4,NCI-H1666,0.915
5,EBC-1,0.961
6,NCI-H1755,0.996
7,NCI-H2023,0.932
8,EPLC-272H,0.874
9,LCLC-97TM1,0.901
10,PC-3 [JPC-3],0.995
11,LOU-NH91,0.969
12,NCI-H647,1.06
13,NCI-H23,1
14,NCI-H2342,1
15,ChaGo-K-1,1.06
16,SW 900,0.795
17,NCI-H1648,0.661
18,NCI-H441,0.952
19,LCLC-103H,1.06

# Same assay, conditions: 0.03162 µM
row,Cell Line,relative viability
1,NCI-H522,1.02
2,NCI-H1623,1.02
3,PC-14,1.08
4,NCI-H1666,1.02
5,EBC-1,1.05
6,NCI-H1755,1.04
7,NCI-H2023,1.05
8,EPLC-272H,1.09
9,LCLC-97TM1,1.16
10,PC-3 [JPC-3],1.07
11,LOU-NH91,1.09
12,NCI-H647,0.991
13,NCI-H23,1.06
14,NCI-H2342,0.984
15,ChaGo-K-1,1.16
16,SW 900,0.954
17,NCI-H1648,0.966
18,NCI-H441,1.08
19,LCLC-103H,0.999

# Same assay, conditions: 0.1 µM
row,Cell Line,relative viability
1,NCI-H522,0.976
2,NCI-H1623,0.96
3,PC-14,1.03
4,NCI-H1666,0.966
5,EBC-1,0.961
6,NCI-H1755,0.977
7,NCI-H2023,1.05
8,EPLC-272H,0.934
9,LCLC-97TM1,0.815
10,PC-3 [JPC-3],1.06
11,LOU-NH91,0.942
12,NCI-H647,0.798
13,NCI-H23,0.85
14,NCI-H2342,1.03
15,ChaGo-K-1,0.888
16,SW 900,0.716
17,NCI-H1648,0.94
18,NCI-H441,0.97
19,LCLC-103H,1.04

# Same assay, conditions: 0.3162 µM
row,Cell Line,relative viability
1,NCI-H522,0.988
2,NCI-H1623,1.01
3,PC-14,0.989
4,NCI-H1666,0.933
5,EBC-1,0.926
6,NCI-H1755,0.995
7,NCI-H2023,0.953
8,EPLC-272H,1.03
9,LCLC-97TM1,0.962
10,PC-3 [JPC-3],1.04
11,LOU-NH91,0.954
12,NCI-H647,1
13,NCI-H23,1.07
14,NCI-H2342,1
15,ChaGo-K-1,1.01
16,SW 900,0.878
17,NCI-H1648,0.822
18,NCI-H441,0.974
19,LCLC-103H,1.01

# Same assay, conditions: 1 µM
row,Cell Line,relative viability
1,NCI-H522,0.982
2,NCI-H1623,1.02
3,PC-14,0.818
4,NCI-H1666,1.01
5,EBC-1,0.894
6,NCI-H1755,0.967
7,NCI-H2023,0.859
8,EPLC-272H,0.888
9,LCLC-97TM1,0.853
10,PC-3 [JPC-3],0.917
11,LOU-NH91,0.925
12,NCI-H647,0.884
13,NCI-H23,0.877
14,NCI-H2342,0.967
15,ChaGo-K-1,0.99
16,SW 900,0.836
17,NCI-H1648,0.791
18,NCI-H441,0.865
19,LCLC-103H,1

# Compound: Cn1cnc2c(F)c(Nc3ccc(Br)cc3Cl)c(C(=O)NOCCO)cc21 [Selumetinib]
# Test: as above
# Details: 0.02 µM
# Procedure, shortened: as §2
row,Cell Line,relative viability
1,NCI-H522,0.896
2,NCI-H1623,0.85
3,PC-14,0.931
4,NCI-H1666,0.917
5,EBC-1,0.959
6,NCI-H1755,0.952
7,NCI-H2023,0.987
8,EPLC-272H,0.875
9,LCLC-97TM1,0.94
10,PC-3 [JPC-3],1.01
11,LOU-NH91,0.935
12,NCI-H647,0.936
13,NCI-H23,1.05
14,NCI-H2342,0.888
15,ChaGo-K-1,0.999
16,SW 900,0.805
17,NCI-H1648,0.729
18,NCI-H441,1.18
19,LCLC-103H,0.916

# Same assay, conditions: 0.06325 µM
row,Cell Line,relative viability
1,NCI-H522,0.957
2,NCI-H1623,0.83
3,PC-14,0.932
4,NCI-H1666,0.94
5,EBC-1,0.828
6,NCI-H1755,0.963
7,NCI-H2023,0.841
8,EPLC-272H,0.774
9,LCLC-97TM1,0.846
10,PC-3 [JPC-3],1
11,LOU-NH91,0.884
12,NCI-H647,0.797
13,NCI-H23,0.78
14,NCI-H2342,0.896
15,ChaGo-K-1,0.939
16,SW 900,0.776
17,NCI-H1648,0.961
18,NCI-H441,0.922
19,LCLC-103H,0.897

# Same assay, conditions: 0.2 µM
row,Cell Line,relative viability
1,NCI-H522,1.02
2,NCI-H1623,0.79
3,PC-14,0.935
4,NCI-H1666,0.878
5,EBC-1,0.759
6,NCI-H1755,0.916
7,NCI-H2023,0.862
8,EPLC-272H,0.614
9,LCLC-97TM1,0.735
10,PC-3 [JPC-3],0.869
11,LOU-NH91,0.899
12,NCI-H647,0.809
13,NCI-H23,0.758
14,NCI-H2342,0.943
15,ChaGo-K-1,0.946
16,SW 900,0.79
17,NCI-H1648,0.904
18,NCI-H441,0.827
19,LCLC-103H,0.87

# Same assay, conditions: 0.6325 µM
row,Cell Line,relative viability
1,NCI-H522,0.927
2,NCI-H1623,0.714
3,PC-14,0.844
4,NCI-H1666,0.875
5,EBC-1,0.523
6,NCI-H1755,0.922
7,NCI-H2023,0.758
8,EPLC-272H,0.648
9,LCLC-97TM1,0.413
10,PC-3 [JPC-3],0.787
11,LOU-NH91,0.901
12,NCI-H647,0.793
13,NCI-H23,0.674
14,NCI-H2342,0.946
15,ChaGo-K-1,0.929
16,SW 900,0.809
17,NCI-H1648,0.797
18,NCI-H441,0.649
19,LCLC-103H,0.84
